Patent US20030134398A1, “Mitomycin biosynthetic gene cluster” (priority 2001, published 2003)
Where “and” joins values, the source holds several entries; their conditions need not be identical. Identical values can stand only once. Like-named read-outs stand apart in the source and are kept apart here.

Assays:
[1] = tested on: E. coli strain PJS103 (mct-mrd co-expressing)
Procedure: Construction of mct-mrd co-expression plasmid. […] The fragment contained the mrd gene under the control of the T7 promoter, including transcriptional terminator sequences (rrnB T1) upstream and downstream of mrd.
(§1) The cultures were grown overnight at 37° C. and colony-forming units (CFUs) were determined.

[2] = tested on: E. coli BL21 (DE3)::pET17b (vector control)
Procedure: as §1

[3] = tested on: E. coli strain PJS102 (mct expressing); assay: MC resistance phenotype of E. coli, plate count; assay type: cell-based
Procedure: Construction of mct expression plasmid. For the construction of the E. coli expression plasmid NdeI and HindIII sites were introduced at the translational start codon and downstream of the translational stop codon of mct, respectively. […] The PCR was carried out using 2.5 U of Taq polymerase, 0.4 μg of each primer, 1 μg of pDHS7661 DNA as template, […] each of dATP-dGTP-dCTP-dTTP, 1.5 mM MgCl2, and 10 μl of 10×Promega PCR buffer in a total volume of 100 μl .
as §1

[4] = tested on: E. coli strain PJS100 (mrd expressing); assay: MC resistance phenotype of E. coli, plate count; assay type: cell-based
Excerpt: MC resistance phenotppe of E. coli.

S. lavendulae wild-type = assay: Resistance of S. lavendulae strains to MC, plate count; assay type: cell-based, Streptomyces lavendulae
Excerpt: To establish a physiological role for MCT in S. lavendulae, the corresponding gene (mct) was inactivated by insertion of the aphII gene from transposon Tn5 to give pDHS7704.

MitM [5] = target: T1, MitM (Streptomyces lavendulae, UniProt Q9X5Q9); assay type: biochemical, S. lavendulae; settings: Example 4; with SAM
MitN = MitN (Streptomyces lavendulae, UniProt Q9X5Q8); assay: Enzyme assay and kinetic measurement, aziridine N-methyltransferase (Example 5); assay type: biochemical, S. lavendulae; settings: for conversion of candidate substrate by MitN: in the presence of SAM, TLC/HPLC
Procedure: (§2) pDHS7801 and pDHS7802 were transforned into E. coli BL21 (DE3) strain for the overexpression of MitM and MitN, respectively. E. coli cells were grown at 37° C. in NZCM broth containing 50 μg/ml kanamycin until OD600=0.6. Expression of MitM (or MitN) was induced by adding IPTG to a final concentration of 0.1 mM and reducing the temperature to 25° C. After incubating the culture overnight, cells were harvested, suspended in ice-cooled lysis buffer (50 mM NaH2PO4, pH 8.0; 300 mM NaCl; 10 mM imidazole), and lysed by sonication (6×10 seconds with 10 second pauses at 200-300 W). The supernatant collected by centrifuging the lysate at 10,000 g at 4° C. was used to pass through a Qiagen Ni-NTA column as specified by the manufacturer. The column was […] twice with wash buffer (50 mM NaH2PO4, pH 8.0; 300 mM NaCl; 20 mM imidazole) followed by dissolving the protein in elution buffer (50 mM NaH2PO4, pH 8.0; 300 mM NaCl; 250 mM imidazole). The protein eluted from the column was then precipitated with 60% ammonia sulfate, desalted by passing through a Pharmacia PD-10 column, and dissolved in 50 mM pH7.4 potassium buffer with 1 mM PMSF. The protein concentration was determined using the Bradford Assay with BSA as the standard.
(§3) The reactions were incubated at 30° C. for 30 minutes and were terminated by twice equal volume of ethyl acetate extraction.
(§4) The calculations were carried out using Kcat computer program by fitting the data to a Michaelis-Menton equation by linear regression.

MitM [6] = target: T1, MitM; assay: as above; assay type: biochemical, S. lavendulae; settings: for conversion of candidate substrate by MitM: in the presence of SAM, TLC/HPLC
Procedure: as §2, §3, §4

[7] = tested on: E. coli BL21(DE3)::pET17b vector control strain; assay: [^3H]-MC uptake assay; assay type: cell-based; settings: [^3H]-MC 0.022 μg/ml
Procedure: (§5) [^3H]-MC uptake assay of strains PJS102 and PJS103. [^3H]-MC was obtained from Kyowa Hakko Kogyo, Ltd. Uptake studies were performed for whole cells of PJS100, PJS102, PJS103 and E. coli BL21 (DE3)::pT7SC and pET17b. PJS100, PJS102, and PJS103 as well as vectoronly cultures were cultured (37° C.) in 5 ml of NCZYM medium with IPTG added to a final concentration of 1 mM (at approximately 3 hours growth). At 9 hours (late exponential phase), cells were harvested by centrifugation and resuspended in 1 ml NCZYM broth (5×concentration). The concentrated suspension of late-exponential growth phase cells was exposed to [^3H]-MC (59 Ci/mmol) at a final concentration of 0.022 μg/ml (0.0655 nmol). Aliquots (100 μl) were removed at frequent intervals, placed on […] GF/C filters (Whatman International, Maidstone, U.K.) and washed once with 6 ml of 0.85% NaCl poured over the filters under vacuum pressure. Additional aliquots were simultaneously removed for determination of protein content (protein assay kit, Bio-Rad Laboratories, Richmond, Calif.). Radioactivity on the filters was quantified using a Beclkan LS7000 scintillation counter. Results were expressed as nanograins of mitomycin per milligram of cell protein.
(§6) MC uptake by E. coli cells expressing mct, mrd or mct/mrd. Since the deduced amino acid sequence of the mct gene was similar to antibiotic export proteins, reduced accumulation of MC in MCT-expressing cells would be expected. An assay, modeled after experiments used to study tetracycline efflux-mediated resistance in E. coli (Levy and McMurry, 1978), was designed to study the uptake of [^3H]-MC by the susceptible vector control and resistant mct, mrd and mct/mrd expressing E. coli strains.

E. coli strain PJS100 = assay: [^3H]-MC uptake assay; assay type: cell-based; settings: at 30 minutes
Procedure: as §5, §6

E. coli strain PJS102 = assay: [^3H]-MC uptake assay; assay type: cell-based; settings: at 5 minutes; [^3H]-MC 0.022 μg/ml
Procedure: as §5, §6

E. coli strain PJS103 = assay: [^3H]-MC uptake assay; assay type: cell-based
Procedure: as §5, §6

[8] = tested on: C[S+](CC[C@H](N)C(=O)O)C[C@H]1O[C@@H](n2cnc3c(N)ncnc32)[C@H](O)[C@@H]1O; assay: purified protein, by the assay type
[9] = target: macrocin O-methyltransferase (MOMT) (Streptomyces fradiae, UniProt Q9S4D5); settings: read-out: Km for SAM; cited from earlier work
[10] = target: 31-O-demethylFK506 O-methyltransferase (FKMT) (Streptomyces tacrolimicus, UniProt P74838); settings: read-out: Km for SAM; cited from earlier work
[11] = target: demethylmacrocin O-methyltransferase (DMOMT) (Streptomyces fradiae, UniProt Q9ZHQ4); settings: read-out: Km for SAM; cited from earlier work
[12] = tested on: 31-O-desmethylimmunomycin O-methyltransferase (DIMT); settings: read-out: Km for SAM; cited from earlier work
[13] = target: carminomycin O-methyltransferase (CMT) (Streptomyces sp., UniProt Q55216); settings: read-out: Km for SAM; cited from earlier work

CO[C@@]12[C@H](COC(N)=O)C3=C(C(=O)C(C)=C(N)C3=O)N1C[C@@H]1N[C@@H]12 [MC, mitomycin C]
Plate count CFU/ml ([1]; MC 80 μg/ml): 1.4 × 10^5 CFU/ml | Plate count CFU/ml ([1]; MC 100 μg/ml): 9.6 × 10^3 CFU/ml | Plate count CFU/ml ([1]; MC 150 μg/ml): 3.0 × 10^1 CFU/ml | Plate count CFU/ml ([2]; MC 0.01 μg/ml): >10^7 CFU/ml | Plate count CFU/ml ([2]; MC 0.1 μg/ml): 7.3 × 10^3 CFU/ml | Plate count CFU/ml ([2]; MC 0.5 μg/ml): 3.2 × 10^2 CFU/ml | Plate count CFU/ml ([2]; MC 1.0 μg/ml): 0.0 CFU/ml | Plate count CFU/ml ([3]; MC 0.5 μg/ml): 2.1 × 10^5 CFU/ml | Plate count CFU/ml ([3]; MC 1.0 μg/ml): 5.9 × 10^4 CFU/ml | Plate count CFU/ml ([3]; MC 2.5 μg/ml): 2.0 × 10^2 CFU/ml | Plate count CFU/ml ([3]; MC 5.0 μg/ml): 0.0 CFU/ml | Plate count CFU/ml ([4]; MC 1.0 μg/ml): 3.3 × 10^6 CFU/ml | Plate count CFU/ml ([4]; MC 5.0 μg/ml): 2.7 × 10^6 CFU/ml | Plate count CFU/ml ([4]; MC 10 μg/ml): 6.1 × 10^5 CFU/ml | Plate count CFU/ml ([4]; MC 20 μg/ml): 2.5 × 10^5 CFU/ml | Plate count CFU/ml ([4]; MC 30 μg/ml): 5.0 × 10^2 CFU/ml | Plate count CFU/ml ([4]; MC 60 μg/ml): 0.0 CFU/ml | MC resistance level of the wild-type S. lavendulae (S. lavendulae wild-type): > 150 μg(ml | Plate count CFU/ml (S. lavendulae wild-type; MC 40 μg/ml): 5.3 × 10^3 CFU/ml | Plate count CFU/ml (S. lavendulae wild-type; MC 100 μg/ml): 2.0 × 10^3 CFU/ml | enzymatic conversion (methylation) by MitM (MitM [5]): no conversion products were observed | conversion of candidate substrate by MitN (MitN): no conversions were detected | conversion of candidate substrate by MitM (MitM [6]): no conversions were detected | time at which MC accumulation reaches maximum level [7]: 5 min | MC accumulation, % higher than the drug-sensitive vector control (E. coli strain PJS100): 42% | MC accumulation as % of the susceptible control (E. coli strain PJS102): 25% | MC accumulation as % of E. coli cells bearing vector alone (E. coli strain PJS103; at 5 minutes, [^3H]-MC 0.022 μg/ml): 35% | MC accumulation, % greater than strain PJS102 (E. coli strain PJS103; over the course of the experiment): about 23%

MitN (Streptomyces lavendulae)
Km ([8]; other: MitN, pH 7.4, MA fixed 200 μM, SAM 40-400 μM, pH 7.4): 86.6 µM and 87 µM

CC1=C(N)C(=O)C2=C(C1=O)N1C[C@H]3[C@H](N3C)[C@]1(O)[C@H]2COC(N)=O (stereo partly shown) [MD, mitomycin D]
enzymatic conversion (methylation) by MitM (MitM [5]): no conversion products were observed | conversion of candidate substrate by MitN (MitN): no conversions were detected | conversion of candidate substrate by MitM (MitM [6]): no conversions were detected

C[S+](CC[C@H](N)C(=O)O)C[C@H]1O[C@@H](n2cnc3c(N)ncnc32)[C@H](O)[C@@H]1O (stereo partly drawn) [SAM, S-adenosyl-L-methionine]
Km [9]: 23 µM | Km [10]: 28 µM | Km [11]: 111 µM | Km [12]: 13 µM | Vmax for SAM (MitN; MitN, pH 7.4, MA fixed 200 μM): 49.4 ± 5.3 nmol/mg/min | Vmax for SAM (MitM [6]; MitM, pH 7.4, MA fixed 200 μM): 29.8 ± 4.5 nmol/mg/min | Km [13]: 25 µM

mitomycin G
enzymatic conversion (methylation) by MitM (MitM [5]): no conversion products were observed

COC1=C(C)C(=O)C2=C(C1=O)[C@@H](COC(N)=O)[C@H]1[C@H]3N[C@H]3CN21 [9a-demethoxy mitomycin A]
enzymatic conversion (methylation) by MitM (MitM [5]): methylate specifically the aziridine nitrogen

COC1=C(C)C(=O)C2=C(C1=O)[C@H](COC(N)=O)[C@@]1(O)[C@@H]3[C@H](CN21)N3C (stereo partly shown) [Mitomycin B, mitomycin B]
resistance of strain PJS103 to mitomycin B [1]: high-level resistance | Plate count CFU/ml ([1]; Mitomycin B tested at a concentration of 15 μg/ml): >10^7d CFU/ml | Plate count CFU/ml ([4]; Mitomycin B tested at a concentration of 1.0 μg/ml): >10^7b CFU/ml | enzymatic conversion (methylation) by MitM (MitM [5]): no conversion products were observed | conversion of candidate substrate by MitN (MitN): no conversions were detected | conversion of candidate substrate by MitM (MitM [6]): no conversions were detected

C=C1C2=C(C(=O)C(C)=C(OC)C2=O)N2C[C@H]3[C@H](N3C)[C@]12O (stereo partly shown) [MH, mitomycin H]
conversion of candidate substrate by MitN (MitN): no conversions were detected | conversion of candidate substrate by MitM (MitM [6]): no conversions were detected

COC1=C(C)C(=O)C2=C(C1=O)[C@@H](COC(N)=O)[C@@]1(OC)[C@H]3N[C@H]3CN21 [MA, mitomycin A]
enzymatic conversion (methylation) by MitM (MitM [5]): methylated at the aziridine nitrogen | Vmax for MA (MitN; MitN, pH 7.4, SAM fixed 200 μM): 75.9 ± 2.4 nmol/mg/min | conversion of candidate substrate by MitN (MitN): new product was formed | Km (MitN; read-out: Km for MA, MitN, pH 7.4, SAM fixed 200 μM, MA 30-300 μM): 94.7 µM and 95 µM | Vmax for MA (MitM [6]; MitM, pH 7.4, SAM fixed 200 μM): 57.4 ± 4.2 nmol/mg/min | conversion of candidate substrate by MitM (MitM [6]): new product was formed | Km (MitM [6]; read-out: Km for MA, MitM, pH 7.4, SAM fixed 200 μM, MA 30-300 μM): 169 µM

MitM (Streptomyces lavendulae)
Km ([8]; other: MitM, 400 μM mitomycin A, pH 7.0): 30 µM | Km ([8]; other: MitM, pH 7.4, MA fixed 200 μM, SAM 40-400 μM, pH 7.4): 22.8 µM and 23 µM
